Drawing on ChEMBL document CHEMBL1129068, “Structure-activity relationships of the antimalarial agent artemisinin. 5. Analogs of 10-deoxoartemisinin substituted at C-3 and C-9” (J Med Chem, 1996), this text covers Relative activity for 17 compounds.

For assay [1], the system named is Plasmodium falciparum. Nature of the assay: Relative in vitro activity compared to artemisinin against Plasmodium falciparum Indochina W2. Type of assay: functional.
In assay [2] the test system is Plasmodium falciparum. Nature of the assay: Relative in vitro activity compared to artemisinin against Plasmodium falciparum D6 (Sierra Leone). It is filed as functional.

With `CCCCC[C@H]1CO[C@@H]2O[C@@]3(C)CC[C@H]4[C@H](C)CC[C@@H]1[C@@]24OO3`, the Relative activity turned out to be 145 in assay [1] and 170 in assay [2].

On to `C[C@@H]1CC[C@H]2[C@@H](CCCc3ccc(Cl)cc3)CO[C@@H]3O[C@@]4(C)CC[C@@H]1[C@]32OO4`, for which the Relative activity in assay [1] turned out to be 3317; in assay [2] it was 6991.

As to `C[C@@H]1CC[C@H]2CCO[C@@H]3O[C@@]4(CCCCc5ccccc5)CC[C@@H]1[C@@]23OO4`, the Relative activity was 380 in assay [1] and 336 in assay [2].

Turning to `CCOC(=O)CC[C@@]12CC[C@H]3[C@H](C)CC[C@H]4CCO[C@H](O1)[C@]43OO2`, the Relative activity came out at 506 in assay [1] and 422 in assay [2].

`CCC[C@@]12CC[C@H]3[C@H](C)CC[C@H]4CCO[C@H](O1)[C@]43OO2`: the figures for the Relative activity in assay [1] and in assay [2] were 685 and 722, respectively.

Take `CCC[C@H]1CO[C@@H]2O[C@@]3(C)CC[C@H]4[C@H](C)CC[C@@H]1[C@@]24OO3`: the results for the Relative activity in assay [1] and in assay [2] were 550 and 473, respectively.

Regarding `C[C@@H]1CC[C@H]2CCO[C@@H]3O[C@@]4(C)CC[C@@H]1[C@@]23OO4`, the results for the Relative activity in assay [1] and in assay [2] were 190 and 237, respectively.

On to `C[C@@H]1CC[C@H]2CCO[C@@H]3O[C@@]4(CCc5ccccc5)CC[C@@H]1[C@@]23OO4`, for which the Relative activity in assay [1] was found to be 2; in assay [2], 6.

In the case of `CCCC[C@H]1CO[C@@H]2O[C@@]3(C)CC[C@H]4[C@H](C)CC[C@@H]1[C@@]24OO3`, the Relative activity in assay [1] is 2090; in assay [2], 5826.

For the compound `CCCC[C@@]12CC[C@H]3[C@H](C)CC[C@H]4CCO[C@H](O1)[C@]43OO2`, the Relative activity in assay [1] came to 556; in assay [2], 653.

As to `C[C@@H]1CC[C@H]2CCO[C@@H]3O[C@@]4(CCC(=O)O)CC[C@@H]1[C@@]23OO4`, the Relative activity in assay [1] and in assay [2] was 0.09 in each case.

For `CC(C)C[C@@]12CC[C@H]3[C@H](C)CC[C@H]4CCO[C@H](O1)[C@]43OO2`, the figures for the Relative activity in assay [1] and in assay [2] were 250 and 183, respectively.

For the compound `C[C@@H]1CC[C@H]2CCO[C@@H]3O[C@@]4(CCCc5ccc(Cl)cc5)CC[C@@H]1[C@@]23OO4`, the Relative activity in assay [1] amounted to 28; in assay [2] it was 13.

With `C[C@@H]1CC[C@H]2[C@@H](CCCc3ccccc3)CO[C@@H]3O[C@@]4(C)CC[C@@H]1[C@]32OO4`, the Relative activity in assay [1] turned out to be 2506; in assay [2], 5073.

Consider `CC[C@H]1CO[C@@H]2O[C@@]3(C)CC[C@H]4[C@H](C)CC[C@@H]1[C@@]24OO3`, for which the values for the Relative activity in assay [1] and in assay [2] were 466 and 914, respectively.

For the compound `CC[C@@]12CC[C@H]3[C@H](C)CC[C@H]4CCO[C@H](O1)[C@]43OO2`, the Relative activity in assay [1] and in assay [2] was 10 each time.

Regarding `C[C@@H]1CC[C@H]2[C@@H](C)CO[C@@H]3O[C@]4(C)CC[C@@H]1[C@]32OO4` [DEOXOARTEMISININ], the Relative activity in assay [1] is recorded as 567; in assay [2], 659.
